These results are taken from article PMC12494099, “Discovery and Characterization of Novel IKZF1/3 Glue Degraders against Multiple Hematological Cancer Cell Lines” (Oncology Research, 2025).

The structures appear in SMILES notation.

Common to all, as to assay type: cell-based
In test [1] the test system is control vector NCI-H929 cells. As to the kind of experiment: Cell viability, control vector cells. The conditions noted are these: Homo sapiens, NCI-H929, 96 h. The protocol: (§1) Multiple cell lines (NCI-H929, OPM-2, U937, Ocl-Ly3, RPMI-8226, MOLM-13, Skm-1, MUTZ-1, SU-DHL-4, TMD8, U2932, WSU-DLCL-2, MV-4-11 and KG-1 cells) were plated into 96-well plates. The plated at a density of 15,000 cells per well, and each well contained 100 µL of medium. Subsequently, different compounds (MGD-AX, MGD-BX, MGD-CX) were added to each well. These compounds’ concentrations were set at 0, 0.01, 0.033, 0.1, 0.33, 1, 3.3, 10 and 33 μM, and the cells were incubated with the compounds for 96 h. To evaluate the antiproliferative effects of these compounds, the Cell Counting Kit-8 (CCK-8, #CX007, Epizyme, Shanghai, China) was used. All procedures were carried out in strict accordance with the manufacturer’s instructions (Dojindo Laboratories, Mamoto Ken, Japan). The half maximal inhibitory concentrations (IC50) values, which represent the concentrations of the test compounds that can inhibit 50% of cell activity, were calculated using GraphPad Prism 8.0 (GraphPad Software Inc., San Diego, CA, USA).
(§2) […] NCI-H929 and MV-4-11 cells were seeded at a density of 1 × 10^6 cells/well in 6-well tissue culture-treated plates. According to the manufacturer’s protocol (Santa Cruz Biotechnology, Inc, Dallas, TX, USA), CRBN CRISPR/Cas9 knockout Plasmid (#sc-412142), CRBN HDR plasmid (#sc-412142-HDR), UltraCruz® Transfection Reagent (#sc-395739) were pre-mixed in Plasmid Transfection Medium (#sc-108062) at a 1:1:2 mass ratio, and cells were transiently transfected in a 37°C, 5% CO2 incubator. After 72 h of infection, the medium was replaced with complete medium containing 3 μg/mL puromycin for 5–7 days. On day 7, GFP-positive cells were sorted as single cells into 96-well plates. Isolated single-cell clones were screened via western blot analysis, using wild-type NCI-H929 or MV-4-11 cells as positive controls.

Test [2] has as its system control vector MV-4-11 cells. As to the kind of experiment: Cell viability, control vector cells. The conditions noted are these: Homo sapiens, MV4-11, 96 h. The protocol: as §1, §2
The subject of another test is CRBN^−/− MV-4-11 cells. As to the kind of experiment: Cell viability, CRBN knockout cells. Conditions: Homo sapiens, MV4-11, 96 h. The protocol:
as §1, §2

For another test, the system named is CRBN^−/− NCI-H929 cells. As to the kind of experiment: Cell viability, CRBN knockout cells. The conditions noted are these: Homo sapiens, NCI-H929, 96 h. How it is done: as §1, §2
The target of a further test is T1, GSPT1-HiBiT (Homo sapiens, UniProt P15170).
T1 construct: expressed in transfected cells; host or cells: HEK293T
As to the kind of experiment: Quantitative degradation assay using the HiBiT system (HEK293T). Conditions: increased dosing to 10 μM, 24 h. How it is done: (§3) An in vitro quantitative degradation assay utilizing the HiBiT system was carried out as previously described. To evaluate the degradation of IKZF1, IKZF2, and IKZF3 proteins, HEK293T cell lines stably expressing IKZF1-, IKZF2-, IKZF3-, GSPT1- or CK1α-HiBiT were cultured in 96-well plates at 12,000 cells per well. The cells were treated with different concentrations of the test compounds (MGD-A7 and MGD-C9) with concentrations of 0, 0.01, 0.033, 0.1, 0.33, 1, 3.3, 10 and 33 μM for the specified time intervals. After the treatment, cell lysis was carried out using the Nano-Glo HiBiT Lytic Detection System (#N3040, Promega). All lysis operations were strictly carried out according to the manufacturer’s specific protocol. Then, the SpectraMax iD3 instrument (Molecular Devices, San Jose, CA, USA) was used to detect the luminescent signals released by the HiBiT-tagged neosubstrates.
(With HiBiT, luminescence reflects the tagged protein that the partner subunit can reach.)

In the next test the target is T2, IKZF3-HiBiT (Homo sapiens, UniProt Q96SW2+Q9UKT9).
T2 construct: expressed in transfected cells; host or cells: HEK293T
The test is described as above. The conditions noted are these: for reduction in IKZF3: 1 μM, time course; for DC50 / Dmax: HEK293T IKZF3-HiBiT, 24 h; for Dmax: HEK-293T, read-out: maximal degradation (Dmax) on IKZF3. The protocol:
as §3, with “The cells were treated with different concentrations of the test compounds (MGD-A7 and MGD-C9) with concentrations of 0, 0.01, 0.033, 0.1, 0.33, 1, 3.3, 10 and 33 μM for the specified time intervals.” left out

Another test deals with T3, IKZF1-HiBiT (Homo sapiens, UniProt Q13422+Q96SW2).
T3 construct: expressed in transfected cells; host or cells: HEK293T
The test is described as above. Conditions: for reduction in IKZF1: 1 μM, time course; for DC50 / Dmax: HEK293T IKZF1-HiBiT, 24 h; for Dmax: HEK-293T, read-out: maximal degradation (Dmax) on IKZF1. The protocol:
as §3, with “The cells were treated with different concentrations of the test compounds (MGD-A7 and MGD-C9) with concentrations of 0, 0.01, 0.033, 0.1, 0.33, 1, 3.3, 10 and 33 μM for the specified time intervals.” left out

The next test has as its target IKZF2 (Homo sapiens, UniProt Q9UKS7). As to the kind of experiment: Immunoblot analysis of endogenous protein. More on the design: endogenous in cells; host or cells: NCI-H929 and MV-4-11. The conditions noted are these: NCI-H929 and MV-4-11 cells. The protocol: Cells (NCI-H929 and MV-4-11) were plated into 6-well plates. They were then treated with different concentrations (0, 0.01, 0.1, 1, 10 μM) of the compounds (MGD-A7, MGD-C9) or the designated time periods. Afterward, the cells were washed with phosphate-buffered saline (PBS, pH = 7.2–7.4, 1×). Next, they were lysed using RIPA buffer (#R0278-500ML, Sigma-Aldrich, MO, USA), and the cell lysates were precisely measured. Following this, the total protein lysates underwent 10% sodium dodecyl sulfate-polyacrylamide gel electrophoresis (SDS-PAGE). This method efficiently separated the proteins based on their molecular weights. Subsequently, the separated proteins were transferred onto a nitrocellulose membrane (#HATF00010, […], Madison, WI, USA). The membranes were then successively incubated with the indicated primary antibodies. […] The chemiluminescent signal was detected, and membrane images were captured with an Imaging system (Bio-Rad, Hercules, CA, USA). ImageJ analysis software (V1.8.0.112, National Institutes of Health, NIH, Bethesda, MD, USA) was employed to analyze the intensity of protein bands, aiming to quantify the relative expression levels of the target proteins. The half-maximal degradation concentration (DC50) value, which indicates the concentrations of test compounds showing 50% protein degradation efficacy, was calculated using GraphPad Prism 8.0.
(Immunoblotting shows a protein as a band on a membrane.)

T3 sequence (Q13422 whole entry): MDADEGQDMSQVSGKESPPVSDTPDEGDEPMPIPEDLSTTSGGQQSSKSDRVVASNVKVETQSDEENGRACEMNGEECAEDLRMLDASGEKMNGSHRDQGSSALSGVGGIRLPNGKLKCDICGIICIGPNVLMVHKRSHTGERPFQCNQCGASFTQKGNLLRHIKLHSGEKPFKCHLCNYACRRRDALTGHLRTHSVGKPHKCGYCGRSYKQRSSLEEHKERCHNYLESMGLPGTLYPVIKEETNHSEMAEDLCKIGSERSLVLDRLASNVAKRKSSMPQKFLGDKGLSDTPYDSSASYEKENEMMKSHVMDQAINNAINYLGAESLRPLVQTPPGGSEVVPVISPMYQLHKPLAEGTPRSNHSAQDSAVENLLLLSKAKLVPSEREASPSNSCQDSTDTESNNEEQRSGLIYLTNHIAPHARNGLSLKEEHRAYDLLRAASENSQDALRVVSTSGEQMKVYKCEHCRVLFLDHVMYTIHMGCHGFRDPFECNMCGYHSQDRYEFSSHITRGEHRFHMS
T3 sequence (Q96SW2 whole entry): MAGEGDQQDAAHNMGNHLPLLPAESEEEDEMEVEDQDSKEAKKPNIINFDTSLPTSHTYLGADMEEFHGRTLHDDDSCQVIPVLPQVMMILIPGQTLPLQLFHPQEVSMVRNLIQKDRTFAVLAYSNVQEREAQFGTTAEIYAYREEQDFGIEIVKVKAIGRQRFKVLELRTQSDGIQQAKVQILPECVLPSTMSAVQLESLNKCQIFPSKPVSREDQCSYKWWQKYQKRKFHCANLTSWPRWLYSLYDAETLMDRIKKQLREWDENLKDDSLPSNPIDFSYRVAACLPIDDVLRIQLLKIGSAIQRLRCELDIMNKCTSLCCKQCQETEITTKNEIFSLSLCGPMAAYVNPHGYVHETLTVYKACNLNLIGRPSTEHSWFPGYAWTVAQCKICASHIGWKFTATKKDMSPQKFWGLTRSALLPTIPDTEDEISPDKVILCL
T3 sequence (Q16531 whole entry partner): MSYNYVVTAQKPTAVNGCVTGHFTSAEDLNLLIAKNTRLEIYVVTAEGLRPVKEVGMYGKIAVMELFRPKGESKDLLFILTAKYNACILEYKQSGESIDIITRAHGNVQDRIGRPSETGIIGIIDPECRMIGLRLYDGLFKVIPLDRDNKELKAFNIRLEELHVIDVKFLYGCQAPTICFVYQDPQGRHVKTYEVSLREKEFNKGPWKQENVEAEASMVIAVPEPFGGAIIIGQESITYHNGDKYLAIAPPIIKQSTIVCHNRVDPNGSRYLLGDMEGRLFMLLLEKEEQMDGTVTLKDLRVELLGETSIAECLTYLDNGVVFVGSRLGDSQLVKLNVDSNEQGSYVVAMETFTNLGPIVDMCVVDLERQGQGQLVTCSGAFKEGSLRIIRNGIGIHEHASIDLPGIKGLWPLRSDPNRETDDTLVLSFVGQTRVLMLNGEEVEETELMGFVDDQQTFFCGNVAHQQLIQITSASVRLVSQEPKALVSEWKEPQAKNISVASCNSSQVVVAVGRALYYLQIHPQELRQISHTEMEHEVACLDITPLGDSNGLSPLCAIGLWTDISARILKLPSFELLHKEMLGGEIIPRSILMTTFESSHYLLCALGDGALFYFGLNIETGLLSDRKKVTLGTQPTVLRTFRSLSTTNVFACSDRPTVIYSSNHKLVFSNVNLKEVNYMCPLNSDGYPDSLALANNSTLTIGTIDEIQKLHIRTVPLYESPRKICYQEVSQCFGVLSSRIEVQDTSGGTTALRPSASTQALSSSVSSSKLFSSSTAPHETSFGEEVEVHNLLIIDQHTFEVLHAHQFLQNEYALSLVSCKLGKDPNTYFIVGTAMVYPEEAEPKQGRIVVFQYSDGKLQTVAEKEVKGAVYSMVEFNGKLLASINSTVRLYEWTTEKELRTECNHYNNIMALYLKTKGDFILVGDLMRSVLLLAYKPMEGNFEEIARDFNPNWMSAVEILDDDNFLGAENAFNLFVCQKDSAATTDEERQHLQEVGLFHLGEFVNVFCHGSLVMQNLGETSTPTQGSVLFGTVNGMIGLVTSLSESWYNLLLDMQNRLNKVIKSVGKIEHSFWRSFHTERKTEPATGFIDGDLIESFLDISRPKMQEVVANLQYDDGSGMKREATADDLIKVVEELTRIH
T2 sequence (Q9UKT9 whole entry): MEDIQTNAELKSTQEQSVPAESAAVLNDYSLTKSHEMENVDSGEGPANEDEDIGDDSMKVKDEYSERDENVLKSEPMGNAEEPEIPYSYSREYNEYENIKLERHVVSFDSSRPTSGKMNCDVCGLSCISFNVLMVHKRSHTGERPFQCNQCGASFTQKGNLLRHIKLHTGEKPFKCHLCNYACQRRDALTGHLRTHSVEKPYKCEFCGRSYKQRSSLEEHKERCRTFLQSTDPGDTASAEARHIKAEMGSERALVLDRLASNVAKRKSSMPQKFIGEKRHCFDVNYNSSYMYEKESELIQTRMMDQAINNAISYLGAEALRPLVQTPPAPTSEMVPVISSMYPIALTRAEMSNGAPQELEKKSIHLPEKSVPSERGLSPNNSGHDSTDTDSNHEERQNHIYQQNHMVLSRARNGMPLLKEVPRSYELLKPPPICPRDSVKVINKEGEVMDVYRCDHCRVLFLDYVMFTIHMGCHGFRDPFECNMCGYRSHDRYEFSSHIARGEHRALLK
T2 sequence (Q96SW2 whole entry): as the sequence (Q96SW2 whole entry) above
T2 sequence (Q16531 whole entry partner): as the sequence (Q16531 whole entry partner) above
Chain of IKZF2 (Q96SW2 whole entry partner): as the sequence (Q96SW2 whole entry) above
Chain of IKZF2 (Q16531 whole entry partner): as the sequence (Q16531 whole entry partner) above
Chain of IKZF2 (Q9UKS7 whole entry): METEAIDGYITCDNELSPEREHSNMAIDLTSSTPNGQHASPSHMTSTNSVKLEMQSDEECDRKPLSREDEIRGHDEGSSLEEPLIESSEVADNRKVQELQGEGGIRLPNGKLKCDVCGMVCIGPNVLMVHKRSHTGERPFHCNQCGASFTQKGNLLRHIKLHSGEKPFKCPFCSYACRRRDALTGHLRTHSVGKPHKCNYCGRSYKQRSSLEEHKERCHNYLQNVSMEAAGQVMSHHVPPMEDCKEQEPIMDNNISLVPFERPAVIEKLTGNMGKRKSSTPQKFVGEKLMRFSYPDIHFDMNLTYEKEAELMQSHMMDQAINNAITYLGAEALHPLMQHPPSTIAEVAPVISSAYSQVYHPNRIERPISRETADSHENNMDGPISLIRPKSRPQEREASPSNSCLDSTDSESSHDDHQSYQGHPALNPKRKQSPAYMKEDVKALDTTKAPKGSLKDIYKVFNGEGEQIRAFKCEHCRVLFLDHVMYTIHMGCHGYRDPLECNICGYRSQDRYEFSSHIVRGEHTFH
T1 sequence (Q96SW2 whole entry partner): as the sequence (Q96SW2 whole entry) above
T1 sequence (Q16531 whole entry partner): as the sequence (Q16531 whole entry partner) above
T1 sequence (P15170 whole entry): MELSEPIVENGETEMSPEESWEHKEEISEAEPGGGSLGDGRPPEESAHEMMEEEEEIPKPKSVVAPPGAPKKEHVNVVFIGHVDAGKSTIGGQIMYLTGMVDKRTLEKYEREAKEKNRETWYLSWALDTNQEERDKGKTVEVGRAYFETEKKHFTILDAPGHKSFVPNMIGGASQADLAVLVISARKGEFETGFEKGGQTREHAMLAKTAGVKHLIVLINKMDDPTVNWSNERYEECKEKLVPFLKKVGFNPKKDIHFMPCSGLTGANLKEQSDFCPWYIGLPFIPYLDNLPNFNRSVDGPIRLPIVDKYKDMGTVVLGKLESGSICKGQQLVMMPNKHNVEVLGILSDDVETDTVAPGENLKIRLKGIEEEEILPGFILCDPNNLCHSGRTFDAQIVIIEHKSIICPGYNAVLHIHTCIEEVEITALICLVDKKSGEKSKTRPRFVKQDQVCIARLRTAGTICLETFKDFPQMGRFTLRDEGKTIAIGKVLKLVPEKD

Broadly, the IC50 is the concentration that inhibits the measured activity by half. A low value points to inhibition by little substance. For orientation: DC50 means the midpoint of the concentration-degradation curve. A lower DC50 goes with degradation at low concentration. What is called Dmax is the largest share of the target that was removed. Consider `CN1CCN(Cc2cccc(C(=O)NC3CCC(=O)NC3=O)c2)CC1` (stereo not drawn) [MGD-A7, N-(2,6-dioxopiperidin-3-yl)-3-((4-methylpiperazin-1-yl)methyl)benzamide], for which the concentration for half-maximal inhibition (IC50) was 638 nM in test [1], 676 nM in test [2], more than 33000 nM in the test on CRBN^−/− MV-4-11 cells and more than 33000 nM with CRBN^−/− NCI-H929 cells. Further, at GSPT1-HiBiT, the “degradation effect on luminescence signals of GSPT1-HiBit” value is “minimal degradation effects”. The “reduction in IKZF3” value on IKZF3-HiBiT (12 h) is more than 80%. The 50% degradation concentration (DC50) on IKZF3-HiBiT stood at 110 nM; at IKZF1-HiBiT it was 249 nM. Moreover, the Dmax came out at 86.4% at IKZF3-HiBiT and 89.4% at IKZF1-HiBiT. Besides, the “reduction in IKZF1” value at IKZF1-HiBiT (12 h) is reported as more than 60%. In addition, at IKZF2, the “degradation on IKZF2” value was “minimal degradation”.
For the compound `CN1CCN(Cc2cccc(C(=O)NC3CCC(=O)NC3=O)c2F)C(=O)C1` (stereo not drawn) [MGD-C9, N-(2,6-dioxopiperidin-3-yl)-2-fluoro-3-((4-methyl-2-oxopiperazin-1-yl)methyl)benzamide], the IC50 in test [1] is 313 nM; in test [2] it was 198 nM; in the test on CRBN^−/− MV-4-11 cells it was more than 33000 nM; in the test on CRBN^−/− NCI-H929 cells it was more than 33000 nM. At GSPT1-HiBiT, the “degradation effect on luminescence signals of GSPT1-HiBit” value is “minimal degradation effects”. Besides, the “reduction in IKZF3” value at IKZF3-HiBiT (8 h) is reported as more than 70%. Also, the 50% degradation concentration (DC50) came out at 57 nM on IKZF3-HiBiT and 96 nM at IKZF1-HiBiT. Moreover, the Dmax was 92.1% on IKZF3-HiBiT and 90.3% at IKZF1-HiBiT. Further, at IKZF1-HiBiT (8 h), the “reduction in IKZF1” value is listed as more than 60%. Further, the “degradation on IKZF2” value on IKZF2 is listed as “minimal degradation”.
